Assay results from BindingDB's records for doi:10.1016/j.bmcl.2003.08.049 (Merck Research Laboratories, 2003).

Biological target: T1, Dimer of Gag-Pol polyprotein [489-587,Q496K] (Human immunodeficiency virus 1, UniProt P12497, Q496K)
T1 construct: 489-587
Experiment: Protease Inhibition Assay
Details: pH 5.5; 30 °C
Experimental: Assay of HIV protease inhibition was performed by peptide cleavage using the substrate Val-Ser-Gln-Asn-beta-naphthylalanine*Pro-Ile-Val. Products of the cleavage reaction were quantified by HPLC detection, and data were fit to nonlinear least squares equations for determination of steady-state Michaelis-Menten kinetics.

O=C(N[C@H]1c2ccccc2OC[C@H]1O)[C@H](Cc1cccnc1)C[C@H](O)CN1CCN(Cc2ccc(-c3ccccc3)o2)C[C@H]1C(=O)NCC(F)(F)F [(2S)-1-[(2S,4R)-2-hydroxy-4-{[(3S,4S)-3-hydroxy-3,4-dihydro-2H-1-benzopyran-4-yl]carbamoyl}-4-(pyridin-3-ylmethyl)butyl]-4-[(5-phenylfuran-2-yl)methyl]-N-(2,2,2-trifluoroethyl)piperazine-2-carboxamide]
IC50: 0.02 nM
